Data on two compounds can be found in patent publication US9056804B2, “Urease inhibitor formulations” (Incitec Pivot Limited, priority 2011, dated 2015).

Data set [1] relates to urease. Briefly: Soil-water suspension incubation, ammonium formed from urea (17 days). The class given is biochemical. To be noted: 72% inhibition at 50 μg/200 ml versus NBPT at 400 μg/200 ml. As to the method:
The ammonium produced was measured as per Example 9.

The test system of data set [2] is fish, algae and invertebrates. As to conditions: cited from earlier work.

As for `NP(N)(=O)Nc1ccccc1[N+](=O)[O-]` [Example 2-NPT, 2-nitrophenyl phosphoric triamide], the “activity relative to NBPT” value in data set [1] was “about eight times more active than NBPT”. For the compound `O=S1(=O)CCCC1` [tetramethylene sulfone], the LC50 result in data set [2] is listed as “greater than 1000 mg/l”.
